Where no end group is shown, it is not given here.
What was measured:
normal mice = assay: effects on erythropoiesis (hematocrit) in normal mice; type: in vivo; details: dosed equally / equal activity units
Text: (§1) In vivo studies were done in normal mice to compare the half-life of EMP-Hinge core mimetibody to that of rHuEPO and to compare their effects on erythropoiesis.

[1] = test system: EPO dependent UT-7/EPO cell line; assay: in vitro bioactivity assay: viability of rHuEPO-starved UT-7/EPO cells (MTS); type: cell-based, human; details: for activity compared with rHuEPO: in vitro cell proliferation assay
Experimental: The activity of EMP-Hinge core mimetibody was first tested in an in vitro bioactivity assay. For this assay, the EPO dependent UT-7/EPO cell line, derived from a patient with acute megakaryoblastic leukemia, was used (Komatsu et al., 1993, Blood, vol. 82 (2), 456-464). These cells undergo programmed cell death 48 to 72 hours after withdraw from media supplemented with rHuEPO. Cells that have been incubated in the absence of rHuEPO for 24 hours can be saved if treated with rHuEPO or an EPOR agonist. EMP-Hinge core mimetibody was added to cells starved without rHuEPO and cell viability was determined 48 hours after treatment using the tetrazolium compound MTS (CellTiter 96 Aqueous One Solution, Promega) that is metabolized by living cells to yield a product with an absorbance that can be measured. […] In addition, these same cells were stimulated with EMP-Hinge core mimetibody and tyrosine phosphorylation patterns visualized by running cell lysate through a polyacrylamide gel.

[2] = serum concentrations by ELISA, half-life in normal mice; type: in vivo
Experimental: as §1
The serum concentrations of both rHuEPO and EMP-Hinge core mimetibody were measured by ELISA.

[3] = test system: cells that express the EPO receptor; assay: complement lysis of cells that express the EPO receptor; type: cell-based; details: preliminary studies
Text: It has been shown that mutation of two […] (L) residues, L234 & L235, in the IgG1 lower hinge region to alanine (A) will abrogate the ability of the immunoglobulin to mediate complement dependent cytotoxicity (CDC) and antibody dependant cellular cytotoxicity (ADCC) (Hezereh et al., 2001, J. Virol., vol. 75 (24), 12161-68). […] This may be due to the low number of receptors that are found on erythroid progenitor cells. In addition the in vivo expansion of erythroid progenitors as evidenced by significant increases in hematocrit supports the possible functional irrelevance of immune effector functions. However, while no effector function associated affects have been observed, there remains an interest in introducing these mutations as a precautionary step.

[4] = test system: patients with end-stage renal disease; details: cited from earlier work
[5] = test system: patients with baseline HbA1C 6.0 or higher; assay: datamining of clinical data (GE Clinical Data Services EMR database), patients prescribed EPO; type: in vivo, human; details: for magnitude of HbA1C decline: first 3 months after EPO; for fasting blood glucose after EPO: end of time course
Text: GE Healthcare's Clinical Data Services database contains de-identified, normalized, longitudinal, patient-level Electronic Medical Record data from nearly to 4,000 US based physicians practicing in ambulatory setting who use GE Centricity EMR system. This database contains data on >4.7M patient lives. Average follow up time is approximately 3 years. The database contains information on Patient demographics, medical history, visit type, clinical observations (including Diagnosis codes), laboratory test results and medications prescribed. JNJ has purchased a license to this dataset and mined it to look for outcomes on diabetic parameters in patients who were prescribed EPO for anemia.
Population was further filtered to identify patients with Pre-EPO measurements followed by post-EPO measurements on the following variables of interest • Blood glucose, fasting • Hemoglobin A1c as % of total hemoglobin • Hemoglobin, blood • Hematocrit, blood
Patients with at least 1 pre- (up to 60 days prior) and 1 post- (up to 6 months after) EPO treatment measurements were considered for analysis. Number of patients meeting this criterion varied in numbers for different variables and time zones. Patients who were on EPO medication and also had mean HbA1c value of 6.0 or higher were considered as diabetic.

[6] = cited from earlier work
DIO mice [7] = assay: hematology (hemoglobin, reticulocytes) in DIO mice; type: in vivo; details: DIO mice, 0.03, 0.1, 0.3 mg/kg i.v., five days after dosing
Experimental: (§2) The experiment described in Example 1 was repeated in DIO (diet induced obese) mice following dosing of CNTO 530 (0.3 mg/kg). This murine model is believed to be more representative of the human disease since the mice become diabetic after being fed a high fat diet (Purina TestDiet #58126 consisting of 60.9% kcal fat and 20.8% kcal carbohydrates). As described in Example 1, an IPGTT was done on the day of dosing and seven days after dosing. The time points during the IPGTT were 15, 30, 60, 90, 120, 150, and 180 minutes after glucose challenge. After the IPGTT was completed on day 7, the mice were sacrificed and whole blood (in EDTA) was collected via cardiac puncture for hematology studies.
(§3) Mice (DIO; n=7) were fasted overnight and fasting blood glucose (FBG) was measured. The animals were randomized based upon FBG. The mice were dosed intravenously with CNTO 530 (0.3 mg/kg) and given glucose intraperitonealy (0.5 mg/g) ten minutes later. Blood glucose was measured at various times (10, 20, 30, 60, 90, 120, 150, 180 minutes after glucose). The IPGTTs were repeated 7, 14, 21, 28, and 35 days after that initial single dose. […]
(§4) Mice (DIO; n=7) were fasted overnight and fasting blood glucose (FBG) was measured. […]
as §4

DIO mice [8] = assay: fasting blood glucose in DIO mice; type: in vivo; details: DIO mice, 0.03, 0.1, 0.3 mg/kg i.v., 5 days after dosing
Experimental: (§5) Mice (DIO; n=7) were fasted overnight and fasting blood glucose (FBG) was measured. The animals were randomized based upon FBG and dosed intravenously with EPO (0.03, 0.1, 0.3 mg/kg). An IPGTT (as described above) was done 5 days after dosing. The animals were sacrificed after the IPGTT and whole blood was collected for hematology measurements.
as §5, with “darbepoetin (0.01, 0.03, 0.1” for “EPO (0.03, 0.1, 0.3”, “7” for “5”

DIO mice [9] = assay: IPGTT in DIO (diet induced obese) mice; type: in vivo; details: 5 days after dosing
Experimental: as §2, §3, §4, §4

[10] = 50% serum; cited from earlier work
EPO receptor = molecular target: T1, EPO receptor (Homo sapiens, UniProt P19235); assay: competition with 125I-labeled EPO for binding to the EPO receptor
T1 sequence (P19235 25-508): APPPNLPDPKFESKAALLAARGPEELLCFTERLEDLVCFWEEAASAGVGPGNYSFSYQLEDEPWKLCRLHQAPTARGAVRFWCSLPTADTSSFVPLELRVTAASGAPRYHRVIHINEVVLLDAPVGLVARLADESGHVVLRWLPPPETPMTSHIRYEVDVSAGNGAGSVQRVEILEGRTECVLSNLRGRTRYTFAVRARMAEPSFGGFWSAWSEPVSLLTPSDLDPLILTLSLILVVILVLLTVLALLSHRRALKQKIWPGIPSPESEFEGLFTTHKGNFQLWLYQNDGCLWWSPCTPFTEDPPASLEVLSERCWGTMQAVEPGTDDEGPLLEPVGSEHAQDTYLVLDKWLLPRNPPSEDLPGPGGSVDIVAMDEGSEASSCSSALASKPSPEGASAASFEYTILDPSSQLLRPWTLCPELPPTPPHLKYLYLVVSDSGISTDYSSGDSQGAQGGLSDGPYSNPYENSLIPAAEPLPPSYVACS

[11] = in vivo; cited from earlier work
[12] = listed as EMP-hinge core mimetibody
[13] = UT-7/EPO cells, viability 48 hours after treatment
[14] = baseline HbA1C 7%-8% (7.38%), first month
[15] = baseline HbA1C 8%-9% (8.35%), first month
[16] = baseline HbA1C >9% (10.18), first month
[17] = longitudinal patients, baseline under 126 mg/dL (102 mg/dL)

Substance: EMP-Hinge core mimetibody: V-EMP-1-linker-hinge core-CH2-CH3 construct of IgG1 or IgG4 subclass, SEQ ID NOS: 82-89 (QIQGGTYSCHFGPLTWVCKPQGG; cysteine pairing not given here; also: fused via linker to hinge core-CH2-CH3 of IgG1 or IgG4)
- duration of response compared to rHuEPO (normal mice): prolonged
- maximal response (hematocrit) compared to rHuEPO (normal mice): higher maximal response
- duration of response compared to rHuEPO (normal mice; [12]): maintained for a longer period
- maximal response (hematocrit) compared to rHuEPO (normal mice; [12]): significantly higher maximal hematocrit
- potency on a molar basis, fold greater than the EMP-1 peptide [1, 13]: 500 fold
- potency on a molar basis, fold less than rHuEPO [1, 13]: 5 fold
- potency on a molar basis, fold greater than the EMP-1 peptide ([1]; UT-7/EPO cells, viability 48 hours after treatment, listed as EMP-hinge core mimetibody): more than 500 fold
- activity compared with rHuEPO [1]: in the range of rHuEPO
- activity compared with rHuEPO [1, 12]: substantially similar to recombinant HuEPO
- approximate half-life relative to rHuEPO [2]: at least several times that of rHuEPO
- complement lysis [3]: does not mediate complement lysis

Substance: EPO: glycoprotein hormone of 165 amino acids and four carbohydrate chains, primary regulator of erythropoiesis
- blood triglyceride, total cholesterol and LDL levels [4]: concomitant improvement
- insulin resistance [4]: improve insulin resistance
- decline in HbA1C level ([5]; baseline HbA1C 6.0%-7.0%): no decline
- HbA1C level after EPO [5, 14]: 6.99%
- decline in HbA1C level [5, 14]: 0.39%
- HbA1C level after EPO [5, 15]: 7.51%
- decline in HbA1C level [5, 15]: 0.84%
- HbA1C level after EPO [5, 16]: 8.49%
- decline in HbA1C level [5, 16]: approximately 1.69%
- HbA1C level after EPO ([5]; longitudinal dataset, baseline HbA1C 7-8% (7.47%), first 3 months): 7.01%
- magnitude of HbA1C decline ([5]; longitudinal dataset, baseline HbA1C 7-8% (7.47%)): 0.46%
- further HbA1C change ([5]; longitudinal dataset, baseline HbA1C 7-8%, next 3 months): no significant further change
- HbA1C level after EPO ([5]; longitudinal dataset, baseline HbA1C >8 (9.41%), first 3 months): 8.46%
- magnitude of HbA1C decline ([5]; longitudinal dataset, baseline HbA1C >8 (9.41%)): 0.95%
- further HbA1C change ([5]; longitudinal dataset, baseline HbA1C >8, next 3 month period): no further decline
- fasting blood glucose after EPO ([5]; longitudinal patients, baseline FBG>126 mg/dL (173 mg/dL)): 145 mg/dL
- decline in fasting blood glucose, average ([5]; longitudinal patients, baseline FBG>126 mg/dL (173 mg/dL), entire time course): 28 mg/dL
- decline in FBG level ([5]; longitudinal patients, baseline under 126 mg/dL): do not show any decline
- increase in FBG at the end of the time course [5, 17]: 5 mg/dL
- fasting blood glucose after EPO [5, 17]: 107 mg/dL
- HbA1C level drop, average ([5]; patients with baseline HbA1C above 6.0, first month after EPO administration): 0.5%
- decrease in fasting blood glucose concentration ([5]; patients with baseline HbA1C above 6.0, maximum decline over a 4 month period): approximately 30 mg.dL
- improvement in hemoglobin ([5]; patients, clinical data): < 1%
- Hemoglobin level ([5]; patients, over a 3 month period after initial EPO administration, then plateau): increases steadily
- time to peak serum levels ([6]; subcutaneous administration): 5 to 24 h
- time detectable plasma levels are maintained ([6]; within the therapeutic dose range): at least 24 hours
- hemoglobin (DIO mice [7]): not significantly elevated
- reticulocytes (DIO mice [7]): significantly increased in a dose dependent manner
- fasting blood glucose (DIO mice [8]): no statistically significant reduction
- glucose tolerance (IPGTT) (DIO mice [9]; 0.03 mg/kg i.v.): modest improvement
- glucose tolerance (IPGTT) (DIO mice [9]; 0.3 mg/kg i.v.): modest improvement

Substance: EMP-1: 20 amino acid peptide with no sequence homology to HuEPO that activates the EPO receptor as a dimer (GGTYSCHFGPLTWVCKPQGG)
- ex-vivo half-life [10]: 8 h
- competition with 125I-labeled EPO for binding to the EPO receptor (EPO receptor): competes

Substance: CERA: Roche's pegylated epoetin
- half-life compared with epoetin / EPO [11]: longer half life

From US20100183592A1, “HUMAN EPO RECEPTOR AGONISTS, COMPOSITIONS, METHODS AND USES FOR PREVENTING OR TREATING GLUCOSE INTOLERANCE RELATED CONDITIONS” (priority 2006, published 2010)
